Test results published in US12448366B2, “Solid forms of pralsetinib” (Rigel Pharmaceuticals, Inc., priority 2020, dated 2025).
≈ marks a conversion by molar mass, not a printed value.

Columns and labels:
Assay type in all cases: physicochemical
[1] = Dynamic vapor sorption (DVS); conditions: for DVS Mass Change: glutarate and succinate: between 2% and 90% relative humidity
Procedure: Dynamic Vapor Sorption (DVS) was done using a DVS Intrinsic 1. The sample is loaded into a sample pan and suspended from a microbalance. A typical sample mass for DVS measurement is 25 mg. Nitrogen gas bubbled through distilled water provides the desired relative humidity. A typical measurement comprises the steps: • 1—Equilibrate at 50% RH • 2—50% to 2%. (50%, 40%, 30%, 20%, 10% and 2%) • a. Hold minimum of 5 mins and maximum of 60 minutes at each humidity. The pass criteria is less than 0.002% change • 3—2% to 95% (2%, 10%, 20%, 30%, 40%, 50%, 60%, 70%, 80%, 90%, 95%) • a. Hold minimum of 5 mins and maximum of 60 minutes at each humidity. The pass criteria is less than 0.002% change • 4—95% to 2% (95%, 80%, 70%, 60%, 50%, 40%, 30%, 20%, 10%, 2%) • a. Hold minimum of 5 mins and maximum of 60 minutes at each humidity. The pass criteria is less than 0.002% change • 5—2% to 50% (2%, 10%, 20%, 30%, 40%, 50%) • a. Hold minimum of 5 mins and maximum of 60 minutes at each humidity. The pass criteria is less than 0.002% change High Pressure Liquid Chromatography (HPLC)
Dynamic Vapor Sorption (DVS) was performed using a DVS Intrinsic 1. The samples (12-31 mg) was loaded into a sample pan, suspended from a microbalance and exposed to a humidified stream of nitrogen gas. The sample was held for a minimum of 5 min at each level and only progressed to the next humidity level if there was <0.002% change in weight between measurements (interval: 60 seconds) or 240 min had elapsed. The following program was used: • 1—Equilibration at 50% RH • 2—50% to 2%. (50%, 40%, 30%, 20%, 10% and 2%) • 3—2% to 95% (2%, 10%, 20%, 30%, 40%, 50%, 60%, 70%, 80%, 90%, 95%) • 4—95% to 2% (95%, 80%, 70%, 60%, 50%, 40%, 30%, 20%, 10%, 2%) • 5—2% to 50% (2%, 10%, 20%, 30%, 40%, 50%) High Performance Liquid Chromatography (HPLC)

[2] = Humidity exposure, 75% relative humidity at 40° C. for one week, XRPD; conditions: XRPD pattern after exposure
[3] = Solubility in water and simulated fluids (fasted/fed state simulated intestinal fluid, fasted state simulated gastric fluid); conditions: water, room temperature; read-out: water solubility at room temperature
[4] = One week (7 days) slurry stability by XRPD and HPLC; conditions: XRPD and HPLC, listed as solid form 11-A
[5] = Salt screening: XRPD of wet cake, after drying under vacuum at 50° C., after exposure to 97% relative humidity; conditions: XRPD; for stability of salt solid form to humidification: 97% (>95%) relative humidity; for stability of salt solid form to drying: vacuum at 50° C.
[6] = DSC and TGA/DSC thermal analysis
Procedure: Differential scanning calorimetry was done using a Mettler Toledo DSC3+. The desired amount of sample is weighed directly in a hermetic aluminum pan with pin-hole. A typical sample mass for is 3-5 mg. A typical temperature range is 30° C. to 300° C. at a heating rate of 10° C. per minute (total time of 27 minutes). Typical parameters for DSC are listed below.
Thermogravimetric analysis and differential scanning calorimetry was done using a Mettler Toledo TGA/DSC3+. The desired amount of sample is weighed directly in a hermetic aluminum pan with pin-hole. A typical sample mass for the measurement is 5-10 mg. A typical temperature range is 30° C. to 300° C. at a heating rate of 10° C. per minute (total time of 27 minutes). Protective and purge gasses are nitrogen (20-30 mL/min and 50-100 mL/min). Typical parameters for DSC/TGA are listed below.
Differential scanning calorimetry was performed using a Mettler Toledo DSC3+. The sample (3-5 mg) was weighed directly in a 40 μL hermetic aluminum pan with pin-hole and analyzed according to the parameters below:
Thermogravimetric analysis and differential scanning calorimetry were performed on the same sample simultaneously using a Mettler Toledo TGA/DSC3+. […] The desired amount of sample (5-10 mg) was weighed directly in a hermetic aluminum pan with pin-hole and analyzed according to the parameters below: […]

Row | Compound | mass change by DVS ([1]; between 2% and 90% relative humidity, listed as solid form 11-A) [wt. %] | mass change by DVS ([1]; between 15% and 75% relative humidity, listed as solid form 11-A) [wt. %] | DVS Mass Change ([1]; listed as Glutarate 11-A) [wt. %] | reversibility of the DVS mass change ([1]; listed as solid form 11-A) | Stability 40° C./75% RH ([2]; listed as Glutarate 11-A) | solubility [3] [µg/mL] | stability slurrying 7 days in EtOAc ([4]; EtOAc) | stability slurrying 7 days in EtOH ([4]; EtOH) | stability of salt solid form to humidification ([5]; listed as Pattern 11-A) | stability of salt solid form to humidification ([5]; listed as glutarate 11-A) | stability of salt solid form to humidification ([5]; listed as solid form 11-A) | stability of salt solid form to drying ([5]; listed as Pattern 11-A) | stability of salt solid form to drying ([5]; listed as glutarate 11-A) | stability of salt solid form to drying ([5]; listed as solid form 11-A) | Endotherm Onset ([6]; listed as Glutarate 11-A) [°C] | DVS Mass Change [1] [wt. %] | Stability 40° C./75% RH [2] | Endotherm Onset, event marked (exo) ([6]; exotherm)
1 | CO[C@]1(C(=O)N[C@@H](C)c2ccc(-n3cc(F)cn3)nc2)CC[C@H](c2nc(C)cc(Nc3cc(C)[nH]n3)n2)CC1 [Solid Form 11-A, pralsetinib] | 0.48 | 0.27 | 0.48 | appears to be reversible | Stable | 240 (≈ 450 µM) | converted to a solid form designated as solid form 11-B | converted to a solid form designated as solid form 11-B | stable | stable | stable | stable | stable | stable | 177.8 |  |  | 
2 | CO[C@]1(C(=O)N[C@@H](C)c2ccc(-n3cc(F)cn3)nc2)CC[C@H](c2nc(C)cc(Nc3cc(C)[nH]n3)n2)CC1 [freebase (Pattern FB-A)] |  |  |  |  |  |  |  |  |  |  |  |  |  |  |  | 10.2 | Stable | 162.7 (exo) ° C.
